Values quoted from earlier work in paper PMC10208580 (Science Advances, 2023).

System: RyRs
Conditions: higher concentrations of ryanodine; cited from earlier work
Text: Subconducting states have also been observed in the presence of low concentrations of ryanodine. At higher concentrations, however, addition of ryanodine results in full block ([25]). […] A previous cryo-EM study has resolved density for ryanodine in the pore-forming region, inside the inner vestibule below Gln^4933 ([15]). As this site is >13 Å away from IpCa, ryanodine and IpCa can bind to RyRs simultaneously (fig. S12). Whereas IpCa causes ...

In the case of ryanodine, the “Effect on channel conductance at higher concentrations” value is given as “full block”.
